Experimental data: patent US5679638A, “Method for treating a tumor with a chemotherapeutic agent” (Biopure Corporation, priority 1993, dated 1997)
“And” between values parts separate entries of the source, which are not always exact repeats. Equal entries are not always repeated.

Key:
[1] = system: Lewis lung carcinoma lung metastases; experiment: Lung metastases of Lewis lung carcinoma; format: in vivo, mouse (male C57BL); design: Lung Metastases: unit not given here
Description: The Lewis lung tumor was carried in male C57BL mice (Taconic Laboratories, Germantown, N.Y.). For the experiments, 2×10^6 tumor cells prepared from a brei of several stock tumors were implanted subctaneously into the legs of male mice aged 8-10 weeks. […] Animals bearing Lewis lung tumors were treated daily with intraperitoneal Mino (10 mg/kg), Diflun (15 mg/kg) or Sulin (15 mg/kg) on days 4-18 following tumor implantation. When the tumors had reached a volume of approximately 100 mm^3 (day 7 after tumor cell implantation), cytotoxic therapy was initiated.
Therapy consisted of treatment with an antitumor alkylating agent, an antitumor antimetabolite, a non-steroidal anti-inflammatory drug (NSAID) and/or UPHS. […] CTX therapy consisted of three successive 150 mg/kg CTX doses administered by intraperitoneal injections on days 7, 9 and 11. BCNU therapy consisted of three successive 15 mg/Kg BCNU doses administered by intraperitoneal injections on days 7, 9 and 11. Therapy with the antimetabolite 5-fluorouracil(5-FU) consisted of 4 successive 40 mg/kg 5-FU doses administered by intraperitoneal injections daily on days 7 to 11. The 5-FU was purchased from Sigma Chemical Co., St. Louis, Mo. Fourteen doses of 10 mg/kg of NSAID were administered daily by intraperitoneal injections on days 4 to 18. UPHS was injected into the tail vein in 8 ml/kg doses daily on days 7-11. […]

[2] = system: FSaIIC fibrosarcoma; experiment: FSaIIC fibrosarcoma tumor growth delay; format: in vivo, mouse (male C3H/FeJ mice); settings: for Tumor growth delay, UPHS/Air: UPHS 0.3 ml (12 ml/kg) i.v. immediately before drug; for Tumor growth delay, UPHS/Air / Tumor growth delay, alkylating agent (alone): air breathing; for Increase in tumor growth delay by addition of UPHS: UPHS + drug (air) vs drug alone; for Effect of carbogen breathing on tumor growth delay produced by drug / Tumor growth delay, Carbogen: no UPHS; for Effect of carbogen breathing on tumor growth delay produced by drug: vs drug with air; for Tumor growth delay, Carbogen: drug + carbogen breathing 6 hours; for Tumor growth delay, alkylating agent (alone): drug alone i.p.
Description: The FsaII fibrosarcoma (FSaIIC), adapted for growth in culture, was employed. See Rice, L. et al., "The Radiosensitivity of a Murine Fibrosarcoma as Measured by Three Cell Survival Assays", Br. J. Cancer 41:240-245 (1980). 2×10^6 FSaIIC cells, prepared from a brei of several stock tumors, were implanted intramuscularly into the legs of 8- to 10-week old male C3H/FeJ mice (The Jackson Laboratory, Bar Harbor, Me.). When the tumors were approximately 100 mm^3 in volume, 0.3 ml (12 ml/kg; 1.32 gm protein/kg) of UPHS was injected via the tail vein. The UPHS solution was obtained from Biopure Corporation, Boston, Mass. and was a polymerized form of a highly purified bovine hemoglobin solution. It contained 11±2 gm/deciliter of bovine hemoglobin. […] It contained sodium (145 mM/L), chloride (140 mM/L) and potassium (4.0 mM/L) in a buffer solution (pH 7.8±0.4). […] DeVenuto, F., "Evaluation of Human and Bovine Modified-Hemoglobin Solution as Oxygen-Carrying Fluid for Blood Volume Replacement", Biomat. Art. Cells, Art. Org. 16:77-82 (1988); and Winslow, R. M., "Optimal Hematologic Variables for Oxygen Transport Including p50, Hemoglobin Cooperativity, Hematocrit, Acid-Base Atatus, and Cardiac Function", Biomat., Art. Cells and Art. Organs 16:149-172 (1988).
CTX and PAM were purchased as pure powders from Sigma Chemical Company, St. Louis, Miss. […] BCNU (Carmustine) was purchased from the Dana-Farber Cancer Institute Pharmacy.
The mice were allowed to breathe air or were placed in a circulating atmosphere of 95% O2 /5% CO2 (carbogen) for six hours and then removed to air. The progress of each tumor was measured three times weekly until it reached a volume of 500 mm^3. Tumor growth delay was calculated as the days taken by each individual tumor to reach 500 mm^3 compared to the untreated controls. […] Days of tumor growth Relay are the mean ±SE for the treatment group compared to the control.
Statistical comparisons were made with Dunn Multiple Comparisons Test.
The procedures and materials of Example I were employed except that Fluosol-DA was substituted for UPHS. Fluosol-DA was obtained from Alpha Therapeutics Corporation and is an emulsion consisting of […] (w/v) of the following perfluorocarbons: 7 parts perfluorodecalin, 3 parts per perfluorotripropyliamine; Pluronic F-68 (2.7%, w/v); yolk phospholipids (0.4% w/v) as emulsifiers; and glycerol (0.8%, w/v) as a cryoprotective agent. The annex solution (electrolyte/bicarbonate solution) furnished the preparation with physiological osmolarity.
The specific procedures employing Fluosol-DA have been described previously. See Teicher, B. A. et al., "Approaches to Defining the Mechanism of Fluosol-DA 20%/Carbogen Enhancement of Melphalan Antitumor Activity", Cancer Res. 47:513-518 (1987); Teicher, B. A. et al., "Differential Enhancement of Melphalan Cytotoxicity in Tumor and Normal t+Tissue by Fluosol-DA and Oxygen Breathing", Int. J. Cancer 36:585-589 (1985); and Teicher, B. A. et al., "Effects of Various Oxygenation Conditions on the Enhancement by Fluosol-DA of Melphalan Antitumor Activity", Cancer Res. 47:5036-5041 (1987).

[3] = PAM 10, CTX 150, CDDP 10, BCNU 15 mg/kg
[4] = UPHS + carbogen 6 h + drug vs drug alone

| SMILES | Lung Metastases ([1]; WITH UPHS) | Lung Metastases (% Large) ([1]; WITH UPHS) [%] | Lung Metastases ([1]; WITHOUT UPHS) | Lung Metastases (% Large) ([1]; WITHOUT UPHS) [%] | Tumor growth delay, UPHS/Air [2, 3] | Increase in tumor growth delay by addition of UPHS [2] [fold] | Effect of carbogen breathing on tumor growth delay produced by drug ([2]; carbogen 6 hours) | Tumor growth delay, Carbogen [2, 3] [days] | Tumor growth delay, alkylating agent (alone) [2, 3] | Increase in tumor growth delay by combination of UPHS and carbogen ([2]; mouse, in vivo) [fold] | Tumor growth delay, UPHS/Carbogen ([2]; UPHS 12 ml/kg i.v. + drug + carbogen breathing 6 hours, PAM 10, CTX 150, CDDP 10, BCNU 15 mg/kg) | Increase in tumor growth delay by combination of UPHS and carbogen [2, 4] [fold] | Tumor growth delay, with Fluosol-DA and air breathing ([2]; PAM 10 mg/kg + Fluosol-DA, air) | Tumor growth delay, with Fluosol-DA and carbogen ([2]; CTX 150 mg/kg + Fluosol-DA, carbogen 6 hours) |
| --- | --- | --- | --- | --- | --- | --- | --- | --- | --- | --- | --- | --- | --- | --- |
| O=NN(CCCl)C(=O)NCCCl [BCNU, N,N-bis(2-chloroethyl)-N-nitrosourea] | 9 | 61 | 15.5 | 53 | 3.8 ± 0.5 days | 1.5 | increased the tumor growth delay produced by BCNU to a small degree | 3.3 ± 0.3 | 2.5 ± 0.3 days and 2.5 days | 2.3 | – | – | – | – |
| N.N.[Cl][Pt][Cl] [CDDP, cis-diaminodichloroplatinum(II)] | 13 | 40 | 13 | 58 | 9.6 ± 1.1 days | 1.3 | no significant effect on the tumor growth delay | 7.6 ± 0.3 | 7.4 ± 0.8 days and 7.4 days | – | 14.1 ± 1.6 days and 14.1 days | 1.9 | – | – |
| N[C@@H](Cc1ccc(N(CCCl)CCCl)cc1)C(=O)O [PAM, Melphalan] | 10 | 50 | 13 | 48 | – | 2.2 | small increase in tumor growth delay | 4.0 ± 0.6 | – | – | – | 3.6 | about 6.5 days | – |
| O=P1(N(CCCl)CCCl)NCCCO1 (stereo not shown) [CTX, Cyclophosphamide] | 8 | 40 | 12 | 40 | 7.4 days and 7.4 ± 0.7 days | 2.1 | small increase in the tumor growth delay | 5.0 ± 0.5 | – | – | – | 4.6 | – | about 12 days |
